Values of other authors, collected in patent publication US12318461B2, “Salicylic acid gel” (Vantage Specialty Ingredients, Inc., priority 2012, dated 2025).

For `O=C(O)c1ccccc1O` [Salicylic acid, 2-hydroxybenzenecarboxylic acid], the solubility in water is given as “poorly soluble”.
